Assay type in all cases: cell-based
The target in assay [1] is T1, GABA transporter 3 (Mus musculus, UniProt P31649).
T1 sequence (P31649 whole entry): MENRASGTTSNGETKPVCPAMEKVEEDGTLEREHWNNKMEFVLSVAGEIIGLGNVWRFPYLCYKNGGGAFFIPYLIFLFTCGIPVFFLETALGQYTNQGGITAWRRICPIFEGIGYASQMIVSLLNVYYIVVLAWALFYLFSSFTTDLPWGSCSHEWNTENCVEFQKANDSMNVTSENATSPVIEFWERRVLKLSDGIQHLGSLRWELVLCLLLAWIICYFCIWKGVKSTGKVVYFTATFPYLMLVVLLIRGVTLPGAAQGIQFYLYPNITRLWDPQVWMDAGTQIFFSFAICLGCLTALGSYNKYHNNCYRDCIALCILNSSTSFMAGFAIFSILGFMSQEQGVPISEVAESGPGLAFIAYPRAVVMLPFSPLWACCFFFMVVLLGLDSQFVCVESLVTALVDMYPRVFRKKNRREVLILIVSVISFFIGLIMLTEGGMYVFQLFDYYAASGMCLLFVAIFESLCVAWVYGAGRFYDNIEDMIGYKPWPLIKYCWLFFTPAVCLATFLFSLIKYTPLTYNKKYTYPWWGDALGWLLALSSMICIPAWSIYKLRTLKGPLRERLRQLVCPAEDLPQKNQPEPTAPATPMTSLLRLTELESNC
Nature of the assay: Inhibition of mouse GAT2 mediated [3]GABA uptake expressed in HEK293 cells after 3 mins by scintillation counting.

Assay [2] concerns the target T2, GABA transporter 2 (Mus musculus, UniProt P31651).
T2 sequence (P31651 whole entry): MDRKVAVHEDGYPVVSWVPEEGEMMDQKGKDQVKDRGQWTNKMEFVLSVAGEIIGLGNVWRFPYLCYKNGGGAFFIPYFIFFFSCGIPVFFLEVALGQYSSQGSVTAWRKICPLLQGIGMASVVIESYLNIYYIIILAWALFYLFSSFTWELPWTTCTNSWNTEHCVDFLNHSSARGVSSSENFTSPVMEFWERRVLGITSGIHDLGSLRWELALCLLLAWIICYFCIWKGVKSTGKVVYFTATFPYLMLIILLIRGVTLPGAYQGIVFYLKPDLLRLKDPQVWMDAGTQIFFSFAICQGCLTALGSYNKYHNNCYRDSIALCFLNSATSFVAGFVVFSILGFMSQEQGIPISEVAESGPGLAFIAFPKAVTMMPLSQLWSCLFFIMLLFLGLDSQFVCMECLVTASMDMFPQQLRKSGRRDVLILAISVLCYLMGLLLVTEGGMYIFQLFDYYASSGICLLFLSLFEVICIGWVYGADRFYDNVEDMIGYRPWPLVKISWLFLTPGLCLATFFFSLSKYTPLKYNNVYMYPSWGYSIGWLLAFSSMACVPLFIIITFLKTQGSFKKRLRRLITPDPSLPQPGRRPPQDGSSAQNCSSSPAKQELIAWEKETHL
Nature of the assay: Inhibition of mouse BGT1 mediated [3]GABA uptake expressed in HEK293 cells after 3 mins by scintillation counting.

Assay [3] addresses Sodium- and chloride-dependent GABA transporter 1 (Mus musculus, UniProt P31648). Nature of the assay: Inhibition of mouse GAT1 mediated [3]GABA uptake expressed in HEK293 cells after 3 mins by scintillation counting.

A value given as a limit tells only on which side of the number the result lay.

What is called IC50 is the concentration that gives 50% inhibition. Lower therefore signals greater potency.

Regarding `O=C1CCC2(CCCCC2)N1`, the IC50 in assay [1], in assay [2] and in assay [3] was > 5 mM each time.

For the compound `O=C(CI)N1C(=O)CCC12CCCCC2`, the IC50 in assay [1], in assay [2] and in assay [3] was > 1 mM throughout.

Take `O=C(CCN1CCOCC1)N1C(=O)CCC12CCCCC2`: the IC50 in assay [1], in assay [2] and in assay [3] was > 1 mM in each case.

As to `CCOC(=O)C1CCCN(CCC(=O)N2C(=O)C=CC23CCCC32OCCO2)C1` (stereo not given), the IC50 in assay [1], in assay [2] and in assay [3] was > 1 mM throughout.

In the case of `C=CCN1C(=O)CCC12CCCC21OCCO1` (stereo not given), the IC50 in assay [1], in assay [2] and in assay [3] was > 1 mM throughout.

Consider `O=C1CCC2(CCCC23OCCO3)N1` (stereo not given), for which the concentration for half-maximal inhibition (IC50) in assay [1], in assay [2] and in assay [3] was > 1 mM each time.

Turning to `C=CC(=O)N1C(=O)CCC12CCCCC2=O` (stereo not given), the IC50 in assay [1], in assay [2] and in assay [3] was > 1 mM in each case.

With `O=C(CCN1CCNCC1)N1CCCC12CCCCC2`, the IC50 in assay [1], in assay [2] and in assay [3] was > 1 mM in each case.

Turning to `O=C(CBr)N1C(=O)CCC12CCCCC2=O` (stereo not given), the IC50 in assay [1], in assay [2] and in assay [3] was > 1 mM in each case.

Consider `O=C(CCN1CCCC1)N1CCCC12CCCCC2`, for which the IC50 in assay [1], in assay [2] and in assay [3] was > 5 mM in each case.

As for `[N-]=[N+]=NCC(=O)N1C(=O)CCC12CCCCC2`, the IC50 in assay [1], in assay [2] and in assay [3] was > 1 mM in each case.

As to `O=C1C=CC2(CCCC23OCCO3)N1C(=O)CCN1CCOCC1` (stereo not given), the half-inhibitory concentration (IC50) in assay [1], in assay [2] and in assay [3] was > 1 mM in each case.

For `C=CC(=O)N1C(=O)C=CC12CCCC21OCCO1` (stereo not given), the IC50 in assay [1], in assay [2] and in assay [3] was > 1 mM throughout.

`COC(=O)C1=CCCN(CCC(=O)N2CCCC23CCCCC3)C1`: the IC50 in assay [1] turned out to be 3.23 mM; in assay [2] it was 2.3 mM; in assay [3] it was 2.05 mM.

In the case of `CCN(CC)CCC(=O)N1CCCC12CCCCC2`, the IC50 in assay [1], in assay [2] and in assay [3] was > 1 mM throughout.

On to `CCN(CC)CCC(=O)N1C(=O)CCC12CCCCC2`, for which the IC50 in assay [1], in assay [2] and in assay [3] was > 1 mM each time.

For the compound `O=C(CBr)N1C(=O)CCC12CCCCC2`, the IC50 in assay [1] was > 1 mM; in assay [2], 0.103 mM; in assay [3], 0.371 mM.

With `CCOC(=O)C1CCCN(CCC(=O)N2C(=O)CCC23CCCCC3)C1` (stereo not given), the IC50 is > 1 mM in assay [1], 0.164 mM in assay [2] and > 1 mM in assay [3].

Take `O=C(CCl)N1C(=O)CCC12CCCCC2`: the IC50 in assay [1], in assay [2] and in assay [3] was > 1 mM each time.

Take `C=CC(=O)N1CCCC12CCCCC2`: the IC50 in assay [1] was 3.02 mM; in assay [2], > 5 mM; in assay [3], > 5 mM.

Consider `O=C1C=CC2(CCCC23OCCO3)N1C(=O)CCN1CCNCC1` (stereo not given), for which the concentration for half-maximal inhibition (IC50) in assay [1], in assay [2] and in assay [3] was > 1 mM each time.

Consider `O=C(CCN1CCCC1)N1C(=O)CCC12CCCCC2`, for which the IC50 in assay [1], in assay [2] and in assay [3] was > 1 mM throughout.

`O=C(CBr)N1CCCC12CCCCC2`: the results for the IC50 in assay [1], in assay [2] and in assay [3] were > 5 mM, > 5 mM and 0.233 mM, respectively.

As to `C1CCC2(CC1)CCCN2`, the IC50 in assay [1], in assay [2] and in assay [3] was > 5 mM throughout.

Regarding `O=C(CCN1CCCCC1)N1CCCC12CCCCC2`, the IC50 in assay [1], in assay [2] and in assay [3] was > 5 mM each time.

As for `O=C(CCN1CCCCC1)N1C(=O)CCC12CCCCC2`, the IC50 in assay [1], in assay [2] and in assay [3] was > 1 mM each time.

On to `C=CC(=O)N1C(=O)CCC12CCCCC2`, for which the IC50 in assay [1] is > 1 mM; in assay [2] it was 0.103 mM; in assay [3] it was 0.371 mM.

Take `O=C(CCN1CCNCC1)N1C(=O)CCC12CCCCC2`: the IC50 in assay [1], in assay [2] and in assay [3] was > 1 mM in each case.

On to `O=C1CCC2(CCCCC2=O)N1` (stereo not given), for which the half-maximal inhibitory concentration (IC50) in assay [1], in assay [2] and in assay [3] was > 1 mM throughout.

On to `O=C(CCN1CCOCC1)N1CCCC12CCCCC2`, for which the IC50 in assay [1], in assay [2] and in assay [3] was > 5 mM in each case.

Turning to `CCOC(=O)C1CCCN(CCC(=O)N2CCCC23CCCCC3)C1` (stereo not given), the IC50 was 2.33 mM in assay [1], > 5 mM in assay [2] and > 5 mM in assay [3].

For `O=C(O)C1=CCCN(CCON=C(c2ccccc2)c2ccccc2)C1`, the half-maximal inhibitory concentration (IC50) in assay [1] is > 1 mM; in assay [2] it was > 1 mM; in assay [3] it was 0.00018 mM.

Take `COc1ccc(C(OCCN2CCC[C@H](C(=O)O)C2)(c2ccc(OC)cc2)c2ccc(OC)cc2)cc1`: the IC50 in assay [2] is > 1 mM.

For `O=C(O)C1=CCCNC1` [GUVACINE], the IC50 is 0.0724 mM in assay [1], > 1 mM in assay [2] and 0.0209 mM in assay [3].

Source of the values: ChEMBL document CHEMBL3751783, “Straightforward and effective synthesis of γ-aminobutyric acid transporter subtype 2-selective acyl-substituted azaspiro[4.5]decanes” (Bioorg Med Chem Lett, 2016).
